Assay results: patent publication US12138256B2, “Treatment of cardiopulmonary disorders” (Bayer Aktiengesellschaft, priority 2021, dated 2024)
Several values for one entry are separate records, joined by “and”; a condition that tells them apart may be missing. Equal values may be shown once.

System: thromboxane analog U46619 induced PAH in minipigs with ODQ or L-NAME pretreatment
Assay: PAH minipig model under oxidative stress / low NO (pretreatment by ODQ or L-NAME)
Type: in vivo, Göttingen minipig
Design: PAP / BP: unit not given beside the values
Conditions: for BP / PAP: 30 μg/kg nominal dose inhaled
Description: To simulate conditions of oxidative stress or low NO concentrations as assumed to be present in different cardiovascular disorders, comparative example 11 was evaluated with and without pretreatment by ODQ (inhibitor of sGC) or L-NAME (NOS inhibitor). […] In contrast, the effects of Ventavis® under conditions of oxidative stress or low NO concentrations were not enhanced. In addition, also under these pathophysiological conditions the duration of action of comparative example 11 was much longer compared to Ventavis®.

In the case of `O=C(O)c1ccc(CCN(CCc2ccccc2OCc2ccc(-c3ccc(C(F)(F)F)cc3)cc2Cl)[C@H]2CCCc3nc(C(=O)O)ccc32)cc1` [comparative example 11, (5S)-5-{[2-(4-carboxyphenyl)ethyl][2-(2-{[3-chloro-4′-(trifluoromethyl)[biphenyl]-4-yl]methoxy}phenyl)ethyl]amino}-5,6,7,8-tetrahydroquinoline-2-carboxylic acid], the BP (L-NAME pretreatment, Time 170) is reported as 103.0 and 135.0 and 123.0, the PAP (L-NAME pretreatment, Time 170) is reported as 39.5 and 36.2 and 34.6 and the BP (L-NAME pretreatment, Time 180) is reported as 104.0 and 139.0 and 127.0. For the same compound, the PAP (L-NAME pretreatment, Time 180) was 38.9 and 29.1 and 30.8, the BP (L-NAME pretreatment, Time 190) was 104.0 and 137.0 and 127.0 and the PAP (L-NAME pretreatment, Time 190) was 38.0 and 25.9 and 28.4. For the same compound, the BP (L-NAME pretreatment, Time 200) was 104.0 and 135.0 and 129.0, the PAP (L-NAME pretreatment, Time 200) was 36.8 and 24.6 and 28.1 and the BP (L-NAME pretreatment, Time 210) was 105.0 and 133.0 and 127.0. The PAP (L-NAME pretreatment, Time 210) was 36.5 and 23.9 and 26.6, the BP (L-NAME pretreatment, Time 220) was 107.0 and 131.0 and 127.0 and the PAP (L-NAME pretreatment, Time 220) was 36.6 and 23.8 and 25.5. The BP (L-NAME pretreatment, Time 230) was 108.0 and 127.0 and 129.0, the PAP (L-NAME pretreatment, Time 230) was 35.5 and 23.6 and 25.6 and the BP (L-NAME pretreatment, Time 240) was 106.0 and 128.0. The PAP (L-NAME pretreatment, Time 240) was 35.0 and 24.0 and 25.0, the BP (L-NAME pretreatment, Time 250) was 106.0 and 126.0 and 130.0 and the PAP (L-NAME pretreatment, Time 250) was 34.5 and 23.5 and 24.8. The BP (L-NAME pretreatment, Time 260) was 107.0 and 126.0 and 130.0, the PAP (L-NAME pretreatment, Time 260) was 34.6 and 24.2 and 24.7 and the BP (L-NAME pretreatment, Time 270) was 104.0 and 126.0 and 129.0. The PAP (L-NAME pretreatment, Time 270) was 34.1 and 24.0 and 24.3, the BP (L-NAME pretreatment, Time 280) was 103.0 and 125.0 and 129.0 and the PAP (L-NAME pretreatment, Time 280) was 33.4 and 23.7 and 24.4. For the same compound, the BP (L-NAME pretreatment, Time 290) was 104.0 and 126.0 and 128.0, the PAP (L-NAME pretreatment, Time 290) was 34.4 and 23.4 and 24.2 and the BP (L-NAME pretreatment, Time 300) was 105.0 and 125.0 and 127.0. The PAP (L-NAME pretreatment, Time 300) was 34.2 and 24.1 and 24.0, the BP (L-NAME pretreatment, Time 310) was 103.0 and 125.0 and 128.0 and the PAP (L-NAME pretreatment, Time 310) was 33.3 and 23.6 and 24.3. The BP (L-NAME pretreatment, Time 320) was 104.0 and 125.0 and 126.0, the PAP (L-NAME pretreatment, Time 320) was 33.8 and 23.1 and 24.0 and the BP (L-NAME pretreatment, Time 330) was 105.0 and 126.0 and 125.0. The PAP (L-NAME pretreatment, Time 330) was 34.1, the BP (L-NAME pretreatment, Time 340) was 104.0 and 126.0 and 125.0 and the BP (without pretreatment, Time 170) was 90.0 and 108.0. For the same compound, the PAP (without pretreatment, Time 170) was 39.7 and 38.0 and 42.6, the BP (without pretreatment, Time 180) was 90.0 and 108.0 and the PAP (without pretreatment, Time 180) was 38.5 and 37.1 and 41.5. The BP (without pretreatment, Time 190) was 90.0 and 107.0 and 108.0, the PAP (without pretreatment, Time 190) was 37.0 and 35.9 and 40.3 and the BP (without pretreatment, Time 200) was 89.0 and 109.0. For the same compound, the PAP (without pretreatment, Time 200) was 36.5 and 35.2 and 39.0, the BP (without pretreatment, Time 210) was 89.0 and 108.0 and 109.0 and the PAP (without pretreatment, Time 210) was 35.6 and 34.2 and 38.5. The BP (without pretreatment, Time 220) was 88.0 and 110.0 and 108.0, the PAP (without pretreatment, Time 220) was 34.7 and 33.9 and 36.8 and the BP (without pretreatment, Time 230) was 87.0 and 108.0. For the same compound, the PAP (without pretreatment, Time 230) was 34.8 and 33.4 and 37.1, the BP (without pretreatment, Time 240) was 87.0 and 109.0 and 108.0 and the PAP (without pretreatment, Time 240) was 34.5 and 33.6 and 37.0. The BP (without pretreatment, Time 250) was 86.0 and 110.0 and 109.0, the PAP (without pretreatment, Time 250) was 34.3 and 33.5 and 36.7 and the BP (without pretreatment, Time 260) was 87.0 and 109.0 and 110.0. For the same compound, the PAP (without pretreatment, Time 260) was 34.1 and 33.3 and 36.5, the BP (without pretreatment, Time 270) was 86.0 and 108.0 and 110.0 and the PAP (without pretreatment, Time 270) was 34.0 and 33.6 and 36.2. The BP (without pretreatment, Time 280) was 88.0 and 109.0, the PAP (without pretreatment, Time 280) was 34.5 and 33.5 and 35.6 and the BP (without pretreatment, Time 290) was 88.0 and 108.0 and 110.0. For the same compound, the PAP (without pretreatment, Time 290) was 34.7 and 33.6 and 35.5, the BP (without pretreatment, Time 300) was 86.0 and 107.0 and 111.0 and the PAP (without pretreatment, Time 300) was 34.1 and 33.2 and 35.4. The BP (without pretreatment, Time 310) was 85.0 and 107.0 and 109.0, the PAP (without pretreatment, Time 310) was 34.0 and 33.6 and 35.1 and the BP (without pretreatment, Time 320) was 85.0 and 108.0 and 109.0. The PAP (without pretreatment, Time 320) was 34.5 and 34.0 and 35.8, the BP (without pretreatment, Time 330) was 85.0 and 108.0 and 109.0 and the PAP (without pretreatment, Time 330) was 34.8 and 34.0 and 35.9. The BP (without pretreatment, Time 340) was 85.0 and the “effect on PAP after pretreatment of ODQ or L-NAME” value (inhaled, comparative example 11 30 μg/kg ND, Ventavis 10 μg/kg nominal dose) was “enhanced decrease of PAP without effects on systemic BP”.
